Test results: EP0819380A1, “Bacteriocidal, antibacterial and bacteriostatic composition” (priority 1996, dated 1998)
Read-outs that look alike come from different tables or passages of the source.

Key:
[1] = tested on: herpes simplex I (HSV-1, strain VRIII); test: Inactivation of herpes simplex I (viral infectivity titer, CPE in Vero cells); format: cell-based; conditions: for Viral infectivity titer when contacted for an hour (TCID50/25 µl): room temperature, composition 0.5% butyl p-oxybenzoate
[2] = tested on: influenza virus type B (FluV-B, strain B/Lee/40); format: cell-based
[3] = tested on: mice; conditions: p.o.; cited from earlier work
[4] = tested on: Type HIV-1 (LAI strain); test: Inactivation of HIV (infectivity titer in MT-4 cells); format: cell-based; conditions: summary of Table 6, concentration-dependent
[5] = Composition : Viral solution 1 : 4, 1 hour
[6] = Composition : Viral solution 1 : 9, 1 hour
[7] = Composition : Viral solution 1 : 99, 1 hour
[8] = mixing ratio 1:9, Contact Time 0 minute
[9] = mixing ratio 1:9, Contact Time 5 minutes
[10] = mixing ratio 1:9, Contact Time 15 minutes
[11] = mixing ratio 1:9, Contact Time 30 minutes
[12] = mixing ratio 1:9, Contact Time 1 hour

| SMILES | Viral infectivity titer when contacted for an hour (TCID50/25 µl) [1, 5] | Viral infectivity titer when contacted for an hour (TCID50/25 µl) [1, 6] | Viral infectivity titer when contacted for an hour (TCID50/25 µl) [1, 7] | Viral infectivity titer for various contact time periods (TCID50/25 µl) [1, 8] | Viral infectivity titer for various contact time periods (TCID50/25 µl) [1, 9] | Viral infectivity titer for various contact time periods (TCID50/25 µl) [1, 10] | Viral infectivity titer for various contact time periods (TCID50/25 µl) [1, 11] | Viral infectivity titer for various contact time periods (TCID50/25 µl) [1, 12] | Viral infectivity titer for various contact time periods (TCID50/25 µl) ([2]; 0.5 h) | Viral infectivity titer for various contact time periods (TCID50/25 µl) ([2]; 1 h) | Viral infectivity titer when contacted for an hour (TCID50/25 µl) ([2]; 1 h) | Viral infectivity titer when contacted for an hour (TCID50/25 µl) ([2]; FluV-B, Composition : Viral solution 1 : 99, 1 hour, room temperature, composition 0.5% butyl p-oxybenzoate) | Acute toxicity (LD-50) [3] | inactivation effect against HIV [4] |
| --- | --- | --- | --- | --- | --- | --- | --- | --- | --- | --- | --- | --- | --- | --- |
| CCO [70% Ethanol, Ethanol, reference compound] | 3.2 x 10^4 TCID50/25 µl | 5.6 x 10^4 TCID50/25 µl | 1.0 x 10^5 TCID50/25 µl | 3.2 x 10^4 TCID50/25 µl | 3.2 x 10^4 TCID50/25 µl | 1.8 x 10^4 TCID50/25 µl | 1.8 x 10^3 TCID50/25 µl | 5.6 x 10^4 TCID50/25 µl | 3.2 x 10^3 TCID50/25 µl | 5.6 x 10^3 TCID50/25 µl | 3.2 x 10^3 TCID50/25 µl | – | – | – |
| CCCCOC(=O)c1ccc(O)cc1 [butyl ester, butyl p-oxybenzoate] | ≤3.2 x 10^1 TCID50/25 µl | ≤3.2 x 10^0 TCID50/25 µl | 1.8 x 10^4 TCID50/25 µl | 5.6 x 10^3 TCID50/25 µl | 3.2 x 10^0 TCID50/25 µl | 3.2 x 10^0 TCID50/25 µl | 3.2 x 10^0 TCID50/25 µl | 3.2 x 10^0 TCID50/25 µl | – | – | – | 3.2 x 10^3 TCID50/25 µl | 17000 mg/kg | – |
| CCOC(=O)c1ccc(O)cc1 [ethyl ester, ethyl p-oxybenzoate] | – | – | – | – | – | – | – | – | – | – | – | – | 5000 mg/kg | potent inactivation effect |
| CCCOC(=O)c1ccc(O)cc1 [propyl ester, Propyl p-oxybenzoate] | – | – | – | – | – | – | – | – | – | – | – | – | 8000 mg/kg | – |
